Values joined by “and” are separate entries in the source; they are usually repeats but may differ in a detail not shown here. Equal values may be shown once. ± gives the uncertainty stated by the source.
CC(C)(C)O
Settings	viscosity
293.15 K, 101 kPa	3.925 ± 1 mPa·s
298 K, 101 kPa	3.41 ± 0.18 mPa·s and 4.324 ± 0.036 mPa·s
298.15 K, 100 kPa	4.396 ± 0.18 mPa·s
303 K, 101.33 kPa	3.268 ± 0.34 mPa·s
303.15 K, 101.3 kPa	3.318 ± 0.038 mPa·s and 3.318 ± 0.04 mPa·s
303.2 K, 101.33 kPa	3.333 ± 0.022 mPa·s and 3.333 ± 0.027 mPa·s
305 K, 101 kPa	3.076 ± 0.019 mPa·s
308 K, 101 kPa	2.333 mPa·s
308.15 K, 101.3 kPa	2.55 ± 0.015 mPa·s
308.15 K, 101.33 kPa	2.644 ± 0.27 mPa·s and 2.595 mPa·s and 2.546 ± 0.022 mPa·s
313 K, 101 kPa	2.102 ± 0.014 mPa·s
313.15 K, 101.3 kPa	2.047 ± 0.047 mPa·s
318 K, 101 kPa	1.702 ± 0.018 mPa·s
318.15 K, 101.33 kPa	1.889 ± 0.19 mPa·s and 1.726 mPa·s
323 K, 101 kPa	1.404 ± 0.0093 mPa·s
323.15 K, 100 kPa	1.418 ± 0.059 mPa·s
323.15 K, 101 kPa	1.421 ± 0.018 mPa·s and 1.423 ± 0.011 mPa·s and 1.415 ± 0.01 mPa·s

CC1OC(C)OC(C)O1 (centres undefined)
Settings	viscosity [mPa·s]
293.15 K, 101.3 kPa	1.224 ± 0.023

CCC(O)CO (centres undefined)
viscosity [mPa·s]
Settings	298.15 K	303.15 K	308.15 K	313.15 K	318.15 K	323.15 K
100 kPa	51.63 ± 1.1	37.66 ± 0.78	28.44 ± 0.59	21.59 ± 0.45	16.74 ± 0.35	13.22 ± 0.27
101 kPa	52.8 ± 0.27	38.71 ± 0.25	29.48 ± 0.19	22.86 ± 0.15	–	12.85 ± 0.77

CCCBr
101 kPa
Settings	viscosity [mPa·s]
293.15 K	0.531 ± 0.011
303.15 K	0.486 ± 0.011
308.15 K	0.436 ± 0.0038
313.15 K	0.448 ± 0.01
323.15 K	0.415 ± 0.009

CCCC
viscosity [mPa·s]
Settings	293.15 K	313.15 K
101 kPa	0.17 ± 0.01	0.143 ± 0.003
101.33 kPa	0.17 ± 0.0034	0.143 ± 0.0029

CCCC(=O)OC
101 kPa
Settings	viscosity [mPa·s]
298.15 K	0.546 ± 0.015
323.15 K	0.374 ± 0.01

CCCCCCCC(=O)[O-].c1c[nH+]c[nH]1
101.3 kPa
Settings	viscosity [mPa·s]
293.15 K	88.48 ± 4.6
298.15 K	71.27 ± 2.4
303.15 K	56.48 ± 0.89
308.15 K	45.3 ± 1.1
313.15 K	36.92 ± 0.87
318.15 K	30.56 ± 0.72
323.15 K	25.33 ± 0.61

CCCCCCCCNCCCCCCCC
Settings	viscosity [mPa·s]
303.15 K, 101 kPa	3.665 ± 0.073

CCCCOC(=O)c1ccccc1
viscosity [mPa·s]
Settings	293.15 K	298.15 K	303.15 K	308.15 K	313.15 K	318.15 K	323.15 K
101 kPa	–	2.691 ± 0.085	–	2.208 ± 0.069	–	1.819 ± 0.057	–
101.33 kPa	2.835 ± 0.016	–	2.189 ± 0.013	–	1.73 ± 0.01	–	1.388 ± 0.009

CCNCC
Settings	viscosity
293.15 K, 100 kPa	0.32 ± 0.03 mPa·s and 0.32 ± 0.01 mPa·s
293.15 K, 101.33 kPa	0.32 ± 0.009 mPa·s
298.15 K, 101 kPa	0.29 ± 0.003 mPa·s and 0.265 ± 0.002 mPa·s
303.15 K, 101.33 kPa	0.288 ± 0.008 mPa·s
308.15 K, 101 kPa	0.2466 ± 0.01 mPa·s
308.15 K, 101.33 kPa	0.274 ± 0.007 mPa·s
313.15 K, 100 kPa	0.26 ± 0.02 mPa·s and 0.26 ± 0.01 mPa·s
318.15 K, 100 kPa	0.248 ± 0.007 mPa·s
323.15 K, 100 kPa	0.237 ± 0.019 mPa·s and 0.237 ± 0.006 mPa·s

CCOC(=O)CCCBr
Settings	viscosity [mPa·s]
303.15 K, 101 kPa	1.826 ± 0.011

CN(CCO)CCO
viscosity
Settings	293.15 K	298.15 K	313.15 K	323.15 K
101 kPa	101.2 ± 6.2 mPa·s	74.81 ± 4.5 mPa·s	37.9 ± 2 mPa·s and 34.04 ± 0.41 mPa·s	24.7 ± 1.3 mPa·s and 21.53 ± 0.27 mPa·s
101.33 kPa	–	77.19 ± 2.4 mPa·s and 77.19 ± 0.84 mPa·s	–	–

COCCOCCOCCO
viscosity
Settings	293.15 K	298.15 K	303.15 K	308.15 K	313.15 K	318.15 K	323.15 K
101 kPa	7.211 ± 0.13 mPa·s	6.287 ± 0.13 mPa·s and 6.254 ± 0.11 mPa·s	5.412 ± 0.099 mPa·s	4.535 ± 0.097 mPa·s	–	3.726 ± 0.079 mPa·s	–
101.33 kPa	–	–	–	4.642 ± 0.11 mPa·s and 5.055 ± 0.13 mPa·s	4.074 ± 0.31 mPa·s and 4.08 ± 0.068 mPa·s	–	3.202 ± 0.31 mPa·s and 3.2 ± 0.053 mPa·s

COCCOCCOCCOC
viscosity [mPa·s]
Settings	298.15 K	308.15 K
101 kPa	1.979 ± 0.06	1.607 ± 0.05
101.33 kPa	1.95 ± 0.015	–

COP(=O)([O-])OC.Cn1cc[n+](C)c1
viscosity [mPa·s]
Settings	293.15 K	298.15 K	303.15 K	308.15 K	313.15 K	318.15 K	323.15 K
101 kPa	415.9 ± 30	290.8 ± 18	210.1 ± 10	155.6 ± 6.4	119.2 ± 4.2	92.77 ± 2.7	74.24 ± 1.9
101.33 kPa	–	–	–	139.5 ± 2.6	–	–	–

C[NH+](CCO)CCO.O=C[O-]
101 kPa
Settings	viscosity [mPa·s]
293.15 K	708.5 ± 27
298.15 K	491.4 ± 17
303.15 K	350 ± 11
313.15 K	190 ± 5
323.15 K	124.5 ± 2.9

ClCc1ccccc1
101 kPa
Settings	viscosity [mPa·s]
298.15 K	1.377 ± 0.033
303.15 K	1.112 ± 0.01

NCCN
viscosity
Settings	293.15 K	298.15 K	303.15 K	308.15 K	313.15 K	318.15 K	323.15 K
100 kPa	–	–	–	–	0.7611 ± 0.0066 mPa·s	–	–
101 kPa	1.52 ± 0.03 mPa·s and 1.62 ± 0.12 mPa·s and 1.54 ± 0.03 mPa·s	1.37 ± 0.03 mPa·s and 1.39 ± 0.03 mPa·s and 1.26 ± 0.034 mPa·s	1.16 ± 0.03 mPa·s and 1.18 ± 0.03 mPa·s and 1.299 ± 0.01 mPa·s (2×)	–	–	–	0.737 ± 0.02 mPa·s and 0.9042 ± 0.0074 mPa·s and 0.904 ± 0.007 mPa·s
101.3 kPa	–	–	1.29 ± 0.13 mPa·s	1.167 ± 0.12 mPa·s	1.06 ± 0.11 mPa·s	0.967 ± 0.097 mPa·s	–
101.33 kPa	–	–	1.299 ± 0.01 mPa·s	1.191 ± 0.01 mPa·s	1.08 ± 0.009 mPa·s	0.986 ± 0.008 mPa·s	0.904 ± 0.007 mPa·s

Nc1ccccc1
Settings	viscosity
293.15 K, 100 kPa	4.407 ± 0.2 mPa·s and 4.41 ± 0.35 mPa·s
293.15 K, 101 kPa	4.28 ± 0.05 mPa·s and 4.28 ± 0.04 mPa·s
293.15 K, 101.33 kPa	4.404 ± 0.048 mPa·s
293.35 K, 101 kPa	4.26 ± 0.05 mPa·s
298.15 K, 100 kPa	3.737 ± 0.17 mPa·s
298.15 K, 101.3 kPa	3.61 ± 0.09 mPa·s
298.15 K, 101.32 kPa	3.773 ± 0.0014 mPa·s
298.15 K, 101.33 kPa	3.62 ± 0.036 mPa·s
302.4 K, 101 kPa	5.537 mPa·s
302.75 K, 101 kPa	3.15 ± 0.03 mPa·s
303 K, 101 kPa	3.097 ± 0.079 mPa·s
303 K, 101.3 kPa	3.111 ± 0.082 mPa·s
303 K, 101.33 kPa	3.036 ± 0.31 mPa·s and 3.035 ± 0.31 mPa·s
303.15 K, 100 kPa	3.197 ± 0.14 mPa·s and 3.029 ± 0.035 mPa·s
303.15 K, 101.33 kPa	3.078 ± 0.025 mPa·s
308 K, 101 kPa	2.663 ± 0.068 mPa·s
308 K, 101.3 kPa	2.691 ± 0.071 mPa·s
308.1 K, 101 kPa	2.79 ± 0.063 mPa·s
308.15 K, 100 kPa	2.78 ± 0.12 mPa·s
308.15 K, 101 kPa	2.857 ± 0.29 mPa·s and 2.639 ± 0.028 mPa·s
308.15 K, 101.3 kPa	2.7 ± 0.07 mPa·s
308.15 K, 101.33 kPa	2.615 ± 0.053 mPa·s
313 K, 101 kPa	2.329 ± 0.06 mPa·s
313 K, 101.3 kPa	2.338 ± 0.062 mPa·s
313.15 K, 100 kPa	2.445 ± 0.11 mPa·s and 2.305 ± 0.027 mPa·s and 2.49 ± 0.2 mPa·s
313.15 K, 101.33 kPa	2.327 ± 0.018 mPa·s
318 K, 101 kPa	2.057 ± 0.053 mPa·s
318 K, 101.3 kPa	2.054 ± 0.055 mPa·s
318.15 K, 100 kPa	2.159 ± 0.096 mPa·s
318.15 K, 101 kPa	2.157 ± 0.22 mPa·s and 2.047 ± 0.025 mPa·s and 2.113 ± 0.023 mPa·s
323.15 K, 100 kPa	1.927 ± 0.085 mPa·s
323.15 K, 101 kPa	1.806 ± 0.12 mPa·s
323.15 K, 101.3 kPa	1.87 ± 0.05 mPa·s
323.15 K, 101.33 kPa	2.01 ± 0.02 mPa·s

From the CheMixHub viscosity set
